Counter-ions that a name gives are not always drawn.
Key:
Assay in all cases: biochemical
[1] = molecular target: T1, α-1A adrenoreceptor (rat submaxillary gland) (Rattus norvegicus, UniProt P43140); format: binding; settings: [3H]-prazosin radioligand; rat submaxillary gland membranes; read-out: Radioligand Binding (Ki, nM) 1A (Rat)
T1 sequence (P43140 1-466): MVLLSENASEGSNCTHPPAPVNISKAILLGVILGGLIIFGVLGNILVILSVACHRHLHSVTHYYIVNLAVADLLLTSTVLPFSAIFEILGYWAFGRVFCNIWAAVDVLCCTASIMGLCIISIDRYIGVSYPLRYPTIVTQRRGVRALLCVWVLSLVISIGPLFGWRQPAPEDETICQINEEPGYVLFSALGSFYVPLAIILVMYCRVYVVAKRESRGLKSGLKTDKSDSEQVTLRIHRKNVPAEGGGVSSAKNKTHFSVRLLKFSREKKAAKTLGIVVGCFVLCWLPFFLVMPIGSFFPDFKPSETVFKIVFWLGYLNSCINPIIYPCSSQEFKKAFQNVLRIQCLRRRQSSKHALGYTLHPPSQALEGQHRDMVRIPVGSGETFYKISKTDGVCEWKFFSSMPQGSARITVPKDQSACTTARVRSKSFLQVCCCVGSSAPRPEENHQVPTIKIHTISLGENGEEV
Method in brief: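 Membranes were prepared from rat submaxillary glands as the α-1A adrenoreceptor source. Competition binding followed Greengrass and Bremner, with bound radioligand measured by scintillation counting.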

[2] = molecular target: T2, α-1b adrenoreceptor (Mesocricetus auratus, UniProt P18841); format: binding, hamster; settings: [3H]-prazosin radioligand; cloned receptor in LTK cell membranes; read-out: Radioligand Binding (Ki, nM) 1b (Hamster)
T2 sequence (P18841 1-515): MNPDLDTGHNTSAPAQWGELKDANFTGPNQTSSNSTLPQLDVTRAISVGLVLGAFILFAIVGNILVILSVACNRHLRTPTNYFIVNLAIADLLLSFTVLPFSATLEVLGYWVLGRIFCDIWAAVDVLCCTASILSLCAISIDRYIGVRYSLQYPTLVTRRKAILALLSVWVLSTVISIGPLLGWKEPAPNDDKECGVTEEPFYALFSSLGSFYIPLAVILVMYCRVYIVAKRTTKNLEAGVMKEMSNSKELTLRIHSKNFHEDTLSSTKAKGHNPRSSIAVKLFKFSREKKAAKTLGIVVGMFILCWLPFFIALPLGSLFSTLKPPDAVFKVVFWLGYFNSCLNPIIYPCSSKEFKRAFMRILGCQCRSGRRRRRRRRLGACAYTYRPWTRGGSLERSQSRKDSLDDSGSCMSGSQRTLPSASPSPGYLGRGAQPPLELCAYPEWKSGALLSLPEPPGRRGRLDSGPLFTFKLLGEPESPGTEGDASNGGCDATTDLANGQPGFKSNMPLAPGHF
Method in brief: (§1)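 Radioactivity counted by liquid scintillation after radioligand binding to membranes. Receptors: cloned α-1a, α-1b, α-1d stably expressed in LTK mouse fibroblasts (G418 selection, SV40 early promoter); rat submaxillary gland membranes for pharmacologically defined α-1A.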

[3] = molecular target: T3, α-1a adrenoreceptor (Bos taurus, UniProt P18130); format: binding, bovine; settings: [3H]-prazosin radioligand; cloned receptor in LTK cell membranes; read-out: Radioligand Binding (Ki, nM) 1a (Bovine)
T3 sequence (P18130 1-466): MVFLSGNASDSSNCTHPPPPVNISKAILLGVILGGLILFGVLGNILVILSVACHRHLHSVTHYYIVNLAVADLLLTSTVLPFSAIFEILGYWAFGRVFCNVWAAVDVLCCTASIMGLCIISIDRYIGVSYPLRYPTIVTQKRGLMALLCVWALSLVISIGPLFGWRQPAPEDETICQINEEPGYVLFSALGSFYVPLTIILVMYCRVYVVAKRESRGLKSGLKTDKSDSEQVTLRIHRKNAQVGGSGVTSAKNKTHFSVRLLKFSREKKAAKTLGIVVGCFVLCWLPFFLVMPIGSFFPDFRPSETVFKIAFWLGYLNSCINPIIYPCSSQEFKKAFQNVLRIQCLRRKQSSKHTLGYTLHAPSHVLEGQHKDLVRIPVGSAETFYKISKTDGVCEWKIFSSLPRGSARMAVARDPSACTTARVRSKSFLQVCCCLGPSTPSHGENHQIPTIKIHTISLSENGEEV
Method in brief: as §1

[4] = molecular target: T4, α-1d adrenoreceptor (Rattus norvegicus, UniProt P23944); format: binding; settings: [3H]-prazosin radioligand; cloned receptor in LTK cell membranes; read-out: Radioligand Binding (Ki, nM) 1d (Rat)
T4 sequence (P23944 1-561): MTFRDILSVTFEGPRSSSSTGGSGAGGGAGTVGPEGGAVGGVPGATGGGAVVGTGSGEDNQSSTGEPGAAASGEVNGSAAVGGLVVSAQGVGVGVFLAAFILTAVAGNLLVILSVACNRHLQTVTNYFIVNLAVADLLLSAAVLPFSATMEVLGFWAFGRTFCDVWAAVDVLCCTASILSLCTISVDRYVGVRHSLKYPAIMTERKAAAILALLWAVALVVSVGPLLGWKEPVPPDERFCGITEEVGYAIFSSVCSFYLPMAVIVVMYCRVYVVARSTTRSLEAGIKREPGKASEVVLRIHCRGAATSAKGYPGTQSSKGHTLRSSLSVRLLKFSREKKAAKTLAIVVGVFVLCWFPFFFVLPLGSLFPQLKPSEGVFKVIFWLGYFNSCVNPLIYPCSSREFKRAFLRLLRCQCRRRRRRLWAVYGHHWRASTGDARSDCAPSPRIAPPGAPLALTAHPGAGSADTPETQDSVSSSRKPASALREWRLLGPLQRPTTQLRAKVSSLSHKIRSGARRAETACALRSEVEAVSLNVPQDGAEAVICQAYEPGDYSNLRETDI
Method in brief: as §1

Structure (SMILES)	Ki [1]	Ki [2]	Ki [3]	Ki [4]
COc1cccc2c1[C@@H]1CN(CCCCn3c(=O)[nH]c4c(sc5c(Cl)ccnc54)c3=O)C[C@@H]1CO2 [Example 20, 3-[4-((3aR,9bR-cis-9-Methoxy-1,2,3,3a,4,9b-hexahydro-[1]-benzopyrano[3,4-c]pyrrol-2-yl)butyl]-6-chloro-pyrido[2',3':4,5]thieno[3,2-d]pyrimidine-2,4(1H,3H)-dione hydrochloride]	0.208 nM	3.5 nM	0.038 nM	0.439 nM
COc1cccc2c1[C@@H]1CN(CCCCn3c(=O)[nH]c4c(sc5ccccc54)c3=O)C[C@H]1CO2 [Example 21, 3-[4-((3aS,9bR)-trans-9-Methoxy-1,2,3,3a,4,9b-hexahydro-[1]-benzopyrano[3,4-c]pyrrol-2-yl)butyl]-[1]benzthieno[3,2-d]pyrimidine-2,4(1H,3H)-dione hydrochloride]	0.03 nM	0.326 nM	0.018 nM	0.03 nM
COc1cccc2c1[C@@H]1CN(CCCCn3c(=O)[nH]c4c(sc5ccccc54)c3=O)C[C@@H]1CO2 [Example 22, 3-[4-((3aR,9bR)-cis-9-Methoxy-1,2,3,3a,4,9b-hexahydro-[1]-benzopyrano[3,4-c]pyrrol-2-yl)butyl]-[1]benzthieno[3,2-d]pyrimidine-2,4(1H,3H)-dione hydrochloride]	0.196 nM	1.16 nM	0.031 nM	0.138 nM
COc1cccc2c1[C@@H]1CN(CCCCCn3c(=O)[nH]c4c(sc5ccccc54)c3=O)C[C@H]1CO2 [Example 23, 3-[5-((3aS,9bR)-trans-9-Methoxy-1,2,3,3a,4,9b-hexahydro-[1]-benzopyrano[3,4-c]pyrrol-2-yl)pentyl]-[1]benzthieno[3,2-d]pyrimidine-2,4(1H,3H)-dione hydrochloride]	0.743 nM	0.973 nM	0.046 nM	0.639 nM
COc1cccc2c1[C@@H]1CN(CCCCCn3c(=O)[nH]c4c(sc5ccccc54)c3=O)C[C@@H]1CO2 [Example 24, 3-[5-((3aR,9bR)-cis-9-Methoxy-1,2,3,3a,4,9b-hexahydro-[1]-benzopyrano[3,4-c]pyrrol-2-yl)pentyl]-[1]benzthieno[3,2-d]pyrimidine-2,4(1H,3H)-dione hydrochloride]	5.37 nM	5.56 nM	0.616 nM	4.51 nM
COc1cnc2c(c1)sc1c(=O)n(CCCCN3C[C@H]4COc5cccc(OC)c5[C@@H]4C3)c(=O)[nH]c12 [Example 27, 3-[4-((3aS,9bR)-trans-9-Methoxy-1,2,3,3a,4,9b-hexahydro-[1]-benzopyrano[3,4-c]pyrrol-2-yl)butyl]-7-methoxy-pyrido[2',3':4,5]thieno[3,2-d]pyrimidine-2,4(1H,3H)-dione hydrochloride]	0.121 nM	0.974 nM	0.044 nM	0.094 nM
COc1cccc2c1[C@@H]1CN(CCCCn3c(=O)[nH]c4c(sc5ccc(-c6ccccc6)nc54)c3=O)C[C@H]1CO2 [Example 52, 3-[4-((3aS,9bR)-trans-9-Methoxy-1,2,3,3a,4,9b-hexahydro-[1]-benzopyrano[3,4-c]pyrrol-2-yl)butyl]-8-phenyl-pyrido[2',3':4,5]thieno[3,2-d]pyrimidine-2,4(1H,3H)-dione dihydrochloride]	3.98 nM	13.6 nM	1.08 nM	0.597 nM
COc1cnc2sc3c(=O)n(CCCCN4C[C@H]5COc6cccc(OC)c6[C@@H]5C4)c(=O)[nH]c3c2c1 [Example 55, 3-[4-((3aS,9bR)-trans-9-Methoxy-1,2,3,3a,4,9b-hexahydro-[1]-benzopyrano[3,4-c]pyrrol-2-yl)butyl]-8-methoxy-pyrido[3',2':4,5]thieno[3,2-d]pyrimidine-2,4(1H,3H)-dione hydrochloride]	0.111 nM	1.46 nM	0.103 nM	0.02 nM
COc1cccc2c1[C@@H]1CN(CCCCn3c(=O)[nH]c4c(sc5ccc(-c6cccnc6)nc54)c3=O)C[C@@H]1CO2 [Example 56, 3-[4-((3aR,9bR)-cis-9-Methoxy-1,2,3,3a,4,9b-hexahydro-[1]-benzopyrano[3,4-c]pyrrol-2-yl)butyl]-8-(3-pyridyl)-pyrido[2',3';4,5]thieno[3,2-d]pyrimidine-2,4(1H,3H)-dione dihydrochloride]	0.614 nM	10.2 nM	0.078 nM	1.31 nM
COc1cccc2c1[C@@H]1CN(CCCCn3c(=O)[nH]c4c(sc5ncc(-c6ccsc6)nc54)c3=O)C[C@@H]1CO2 [Example 57, 3-[4-((3aR,9bR)-cis-9-Methoxy-1,2,3,3a,4,9b-hexahydro-[1]-benzopyrano[3,4-c]pyrrol-2-yl)butyl]-8-(3-thienyl)-pyrazino[2',3':4,5]thieno[3,2-d]pyrimidine-2,4(1H,3H)-dione dihydrochloride]	0.682 nM	19.3 nM	0.078 nM	0.507 nM
COc1cccc2c1[C@@H]1CN(CCCCn3c(=O)[nH]c4c(sc5ccc(-c6cccnc6)nc54)c3=O)C[C@H]1CO2 [Example 58, 3-[4-((3aS,9bR)-trans-9-Methoxy-1,2,3,3a,4,9b-hexahydro-[1]-benzopyrano[3,4-c]pyrrol-2-yl)butyl]-8-(3-pyridyl)-pyrido[2',3':4,5]thieno[3,2-d]pyrimidine-2,4(1H,3H)-dione trihydrochloride]	0.273 nM	2.08 nM	0.188 nM	0.039 nM
COc1cccc2c1[C@@H]1CN(CCCCn3c(=O)[nH]c4c(sc5ncc(-c6ccsc6)nc54)c3=O)C[C@H]1CO2 [Example 59, 3-[4-((3aS,9bR)-trans-9-Methoxy-1,2,3,3a,4,9b-hexahydro-[1]-benzopyrano[3,4-c]pyrrol-2-yl)butyl]-8-(3-thienyl)-pyrazino[2',3':4,5]thieno[3,2-d]pyrimidine-2,4(1H,3H)-dione dihydrochloride]	0.166 nM	6.74 nM	0.049 nM	0.257 nM
COc1cccc2c1[C@@H]1CN(CCCCn3c(=O)[nH]c4c(sc5ncc(-c6cccnc6)nc54)c3=O)C[C@H]1CO2 [Example 60, 3-[4-((3aS,9bR)-trans-9-Methoxy-1,2,3,3a,4,9b-hexahydro-[1]-benzopyrano[3,4-c]pyrrol-2-yl)butyl]-8-(3-pyridyl)-pyrazino[2',3':4,5]thieno[3,2-d]pyrimidine-2,4(1H,3H)-dione dihydrochloride]	0.187 nM	14.2 nM	0.078 nM	1.82 nM
